Laboratory results as given in US8287888B2, “Thermosensitive polyphosphazene-bioactive molecule conjugates, preparation method thereof and use thereof” (Korea Institute of Science and Technology, priority 2006, dated 2012).

Key:
[1] = Sol-gel phase transition with change of temperature (Brookfield rheometer); assay type: physicochemical
Procedure: The poly(organophosphazene) conjugated with a drug or bioactivemolecules obtained in Examples 1 to 11 were respectively dissolved in phosphate buffered saline (pH 7.4) at 4° C. so as to make solutions with concentrations of 10 wt %. The solutions were put into a chamber of a Brookfield DV-III+ Rheometer equipped with a thermostatic bath (TC-501).

[2] = Hydrolysis of the polymer with time by GPC molecular weight; assay type: physicochemical; settings: 10 wt % in PBS pH 7.4, 37° C., compared among Examples 3, 4 and 9
[3] = tested on: human breast adenocarcinoma (MCF-7); experiment: Anti-cancer activity in vitro, MTT; assay type: cell-based
Procedure: (§1) In order to find out anticancer activity in vitro of the poly(organophosphazene) conjugated with anti-cancer drug of the present invention, the trial as follows was performed about the human breast adenocarcinoma (MCF-7, the Korea Cell Line Bank) and the human cervix adenocarcinoma (Hela, the Korea Cell Line Bank).
(§2) For the in vitro cell experiment, in order to measure the genesistasis concentration to 50% (IC50) toward the cancer cell of the poly(organophosphazene) conjugated with anticancer drug, the analytical method using 3-(4,5-dimethylthiazol-2-yl)-2,5-diphenyl-2H-tetrazolium bromide (MTT) was performed [T. Mosmann, J. Immunol. Method, 65, (1985) 55].
(§3) The materials for to measuring were respectively melted in the DMSO (dimethylsulfoxide) of the small amount, and they were diluted to the distilled water with 200 times. The materials solution were added to the cancer cell that is MCF-7(the Korea Cell Line Bank) and Hela (the Korea Cell Line Bank). Then, they were added to 96-well microtiter plater to 1.0×10^4 cell/ml (the concentration of the cancer cell). And they were cultivated for 2, 3, 4 days, respectively, with 37° C. in 5% CO2 condition.
(§4) MTT solution (20 μl) was mixed the cultivated cell with, and they were more cultivated for 4 hours with 37° C. in 5% CO2 condition. After the upper culture medium of each cell was removed, DMSO (100 μl) was added to a well and they were shaken in the room temperature to the plate shaker with for 20 minutes, thereby dissolving the formazan crystal generated by reducing of MTT.

[4] = tested on: human cervix adenocarcinoma (Hela); experiment: Anti-cancer activity in vitro, MTT; assay type: cell-based
Procedure: as §1, §2, §3, §4

[5] = 10 wt % in phosphate buffered saline (pH 7.4)

Substance: poly[(isoleucineethylester)(aminomethoxypolyethyleneglycol 550)(glycylglycine)(glycylglycyldoxorubicin)phosphazene] [Example 3]
- Gel solidity (maximum viscosity of the polymer solution) [1, 5]: 158 Pa · s
- Max. gelling temp. (temperature where the viscosity of the polymer solution reaches the maximum point) [1, 5]: 38 °C
- viscosity in 37° C. ([1]; compared among Examples 3, 4 and 9): the highest viscosity
- speed of hydrolysis (reduced molecular weight by GPC) [2]: the most slowly hydrolyzed
- Anti-cancer activity [IC50] ([3]; MCF-7, 2nd day): 2.294 µg/mL
- Anti-cancer activity [IC50] ([3]; MCF-7, 3rd day): 0.926 µg/mL
- Anti-cancer activity [IC50] ([3]; MCF-7, 4th day): 0.798 µg/mL
- Anti-cancer activity [IC50] ([4]; 2nd day): 1.477 µg/mL
- Anti-cancer activity [IC50] ([4]; 3rd day): 1.065 µg/mL
- Anti-cancer activity [IC50] ([4]; 4th day): 0.605 µg/mL
